The values that follow are results of earlier work, collected in paper PMC13207833, “Coumarin–Amino Acid Hybrids Used as Possible Multifactorial Anti-Inflammatory Agents” (International Journal of Molecular Sciences, 2026).

For the series, the target named is T1, soybean lipoxygenase (SLOX-1) (Glycine max, UniProt P08170).
T1 construct: purchased Merck and Sigma-Aldrich
T1 sequence (P08170 1-839): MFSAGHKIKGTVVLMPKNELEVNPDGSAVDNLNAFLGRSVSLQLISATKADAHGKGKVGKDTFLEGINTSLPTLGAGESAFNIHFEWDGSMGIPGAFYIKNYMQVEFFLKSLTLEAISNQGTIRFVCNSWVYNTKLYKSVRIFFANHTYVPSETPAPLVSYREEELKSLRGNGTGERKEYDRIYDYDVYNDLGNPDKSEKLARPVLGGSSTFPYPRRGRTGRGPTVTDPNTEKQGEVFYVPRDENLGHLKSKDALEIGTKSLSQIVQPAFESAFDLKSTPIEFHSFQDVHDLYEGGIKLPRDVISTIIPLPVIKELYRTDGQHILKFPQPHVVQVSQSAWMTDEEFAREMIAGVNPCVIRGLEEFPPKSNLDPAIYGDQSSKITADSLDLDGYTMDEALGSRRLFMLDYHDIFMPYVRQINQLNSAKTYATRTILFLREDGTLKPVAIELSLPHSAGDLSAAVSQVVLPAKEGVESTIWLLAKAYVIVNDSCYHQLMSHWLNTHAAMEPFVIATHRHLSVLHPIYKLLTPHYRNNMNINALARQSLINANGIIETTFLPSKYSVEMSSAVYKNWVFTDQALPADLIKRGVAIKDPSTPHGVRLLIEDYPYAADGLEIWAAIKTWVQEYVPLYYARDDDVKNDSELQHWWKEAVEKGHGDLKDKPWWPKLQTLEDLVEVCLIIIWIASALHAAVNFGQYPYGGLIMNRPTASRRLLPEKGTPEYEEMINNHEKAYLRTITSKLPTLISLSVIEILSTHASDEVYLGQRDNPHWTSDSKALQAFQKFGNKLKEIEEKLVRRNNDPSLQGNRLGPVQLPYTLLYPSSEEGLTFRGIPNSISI
Further details: method as in PMID 29329232. Conditions: value from earlier paper of the group.

In general, IC50 refers to the concentration that gives 50% inhibition. In the case of `O=C(O)COc1ccc2oc(=O)ccc2c1` [Compound 2, 2-((2-oxo-2H-chromen-6-yl)oxy)acetic acid], the IC50 is 100 µM. Consider `O=C(O)COc1ccc2ccc(=O)oc2c1` [Compound 3, 2-((2-oxo-2H-chromen-7-yl)oxy)acetic acid], for which the IC50 was 100 µM.
